From patent publication US4056626A, “Pharmaceutical composition containing benzofuran derivative” (Kakenyaku Kako Co., Ltd., priority 1971, dated 1977)
Where “and” joins values, the source holds several entries; their conditions need not be identical. Equal entries are not always repeated. Entries after “also recorded” stand apart in the source; their conditions may differ.

Tests used:
hypertension = experiment: clinical study of hypertension; type: in vivo; conditions: four hypertensive patients; oral 60 mg./day, 30 days
Description: To a patient of 68 age who was diagnosed as an essential hypertension was orally administered the active ingredient, 2-acetyl-7-(2-hydroxy-3-isopropyl aminopropoxy)benzofuran hydrochloride, […] As a result, the maximum blood pressure of 210 mmHg and the minimum blood pressure of 88 mmHg before treatment were decreased to 176 mmHg and 76 mmHg after treatment, respectively.

[1] = system: tachycardia in hyperthyroidism; experiment: clinical study: tachycardia in hyperthyroidism, combination with antihyperthyroidism medicament; type: in vivo, patients; conditions: in combination with Mercazol, 14 days, per patient
Description: (B) A therapeutic effect of the present pharmaceutical composition in combination with an antihyperthyroidism medicament to tachycardia in hyperthyroidism was investigated.
To six patients of hyperthyroidism shown in Table VIII were orally administered the active ingredient, 2-acetyl-7-(2-hydroxy-3-isopropylaminopropoxy)benzofuran hydrochloride, contained in the capsules obtained in Example 47 and Mercazol in each dose of 30 mg./day (three times per day) for 14 days.

angina pectoris = experiment: clinical study of angina pectoris; type: in vivo, patients; parameters: key: Extremely effective (++): An outstanding improvement of subjective symptom and an outstanding improvement in electrocardiogram were observed.; Effective (+): Therapeutic effects were clearly observed.; Slightly effective (±): Subjective symptom was fairly decreased and some improvement in electrocardiogram was observed.; Non-effective (-): Any therapeutic effect was not observed; conditions: oral 15 to 60 mg./day, 1 to 10 weeks, per patient, hydrochloride
Description: A clinical study relating to angina pectoris was made covering the patients shown in Table V. The active ingredient, 2-acetyl-7-(2-hydroxy-3-isopropylaminopropoxy)benzofuran hydrochloride, contained in the capsules obtained in Example 47 was administered orally in a dose of 15 to 60 mg./day for a period of 1 to 10 weeks.

cardiac arrhythmias = experiment: clinical study of cardiac arrhythmias; type: in vivo, patients; parameters: key to Treatment evaluation: Extremely effective (++): An outstanding improvement of subjective symptom and an outstanding improvement in electrocardiogram were observed.; Effective (+): Therapeutic effects were clearly observed.; Slightly effective (±): Subjective symptom was fairly decreased and some improvement in electrocardiogram was observed.; Non-effective (-): Any therapeutic effect was not observed; conditions: oral 30 to 60 mg./day, 10 days to 12 weeks
Description: The active ingredient, 2-acetyl-7-(2-hydroxy-3-isopropylaminopropoxy)benzofuran hydrochloride, contained in the capsules obtained in Example 47 was administrered orally in a dose of 30 to 60 mg./day for a period of 10 days to 12 weeks. The treatment evaluation was determined according to the following standard: […]

[2] = system: tachycardia in hyperthyroidism; experiment: clinical study: tachycardia in hyperthyroidism, single administration; type: in vivo, patients; conditions: 14 days
Description: A. A therapeutic effect of the present pharmaceutical composition to tachycardia in hyperthyroidism in case of its signle administration was investigated.
To 12 patients of hyperthyroidism shown in Table VI was orally administered the active ingredient, 2-acetyl-7-(2-hydroxy-3-isopropylaminopropoxy)benzofuran hydrochloride, contained in the capsules obtained in Example 47 in a dose of 30 mg./day (3 times per day) for 14 days. The treatment evaluation was determined according to the following standard:
For reference, a therapeutic effect of an antihyperthyroidism medicament to tachycardia in hyperthyroidism in case of its single administration was investigated.
To 12 patients of hyperthyroidism shown in Table VII was orally administered Mercazol which has been widely employed as an antihyperthyroidism medicament in a dose of 30 mg./day for 14 days.

[3] = one value per patient, hydrochloride

Question: `CC(=O)c1cc2cccc(OCC(O)CNC(C)C)c2o1.Cl` (stereo not shown) [2-acetyl-7-(2-hydroxy-3-isopropylaminopropoxy)benzofuran hydrochloride] was tested. Which good therapeutic results (hypertension) did it give?
Answer: The good therapeutic results was “three patients among four, good therapeutic results were obtained”.

Question: And the “Pulse rate after treatment” value ([1]; each oral 30 mg./day (three times per day), hydrochloride, in beats/min (unit assumed))?
Answer: Its value is 88 and 76 and 78 and 68 and 82.

Question: And the Side effect ([1]; each oral 30 mg./day)?
Answer: The Side effect was “No”.

Question: What about the Treatment evaluation ([1]; each oral 30 mg./day, hydrochloride) of the same compound?
Answer: Its Treatment evaluation is “+ (Effective (+): The pulse rate before treatment was decreased in a difference of 10 to 19 after treatment.); also recorded: ++ (Extremely effective (++): The pulse rate before treatment was decreased in a difference of not less than 20 after treatment.)”.

Question: And the Treatment evaluation (angina pectoris)?
Answer: Its Treatment evaluation is “± and + and - and ++”.

Question: What about the Treatment evaluation (cardiac arrhythmias; cardiac arrhythmias, per patient, hydrochloride) of the same compound?
Answer: The Treatment evaluation was “+ and ± and - and ++”.

Question: And the “Blood pressure after treatment (first figure, systolic)” value (cardiac arrhythmias; [3])?
Answer: Its value is 96 mmHg and 114 mmHg and 104 mmHg and 130 mmHg and 145 mmHg and 154 mmHg and 165 mmHg and 125 mmHg and 108 mmHg and 135 mmHg and 118 mmHg.

Question: What about the “Blood pressure after treatment (second figure, diastolic)” value (cardiac arrhythmias; [3]) of the same compound?
Answer: The value was 66 mmHg and 70 mmHg and 62 mmHg and 78 mmHg and 110 mmHg and 75 mmHg and 80 mmHg and 68 mmHg.

Question: What about the “Heart rate/min. after treatment” value (cardiac arrhythmias; [3]) of the same compound?
Answer: The value was 60 min⁻¹ and 82 min⁻¹ and 68 min⁻¹ and 72 min⁻¹ and 76 min⁻¹ and 64 min⁻¹ and 100 min⁻¹.

Question: And the Side effect (cardiac arrhythmias; per patient)?
Answer: Its Side effect is “No”.

Question: What about the “Pulse rate after treatment, average” value ([2]; 12 patients, oral 30 mg./day, average before treatment 114.5, standard deviation 11.6, in beats/min (unit assumed)) of the same compound?
Answer: Its value is 90.4.

Question: What about the Pulse rate difference, average ([2]; 12 patients, oral 30 mg./day, standard deviation printed 1.1) of the same compound?
Answer: The Pulse rate difference, average was 23.8 beats/min.

Question: And the Pulse rate difference ([2]; before minus after, oral 30 mg./day (3 times per day), per patient, hydrochloride, in beats/min (unit assumed))?
Answer: Its Pulse rate difference is 22 and 32 and 14 and 30 and 51 and 28 and 24 and 20 and 8 and 16.

Question: And the Side effect ([2]; hyperthyroidism, oral 30 mg./day (3 times per day), per patient)?
Answer: The Side effect was “No”.

Question: And the Treatment evaluation ([2]; hyperthyroidism, oral 30 mg./day (3 times per day), per patient, hydrochloride)?
Answer: Its Treatment evaluation is “++ (Extremely effective (++): The pulse rate before treatment was decreased in a difference of not less than 20 after treatment.); also recorded: + (Effective (+): The pulse rate before treatment was decreased in a difference of 10 to 19 after treatment.)”.

Question: What about the “Pulse rate after treatment” value ([2]; hyperthyroidism, oral 30 mg./day (3 times per day), per patient, hydrochloride, in beats/min (unit assumed)) of the same compound?
Answer: Its value is 80 and 108 and 88 and 100 and 77 and 76 and 84.
